Values joined by “and” are separate entries in the source; they are usually repeats but may differ in a detail not shown here. Equal values may be shown once. Inconclusive results and toxic doses are left out.
Test system: BDF1 mice, B16 melanoma ip, median survival T/C
Experiment: NCI In Vivo Anticancer Drug Screen. Data for tumor model B16 Melanoma (intraperitoneal) in B6D2F1 (BDF1) mice
Conditions: endpoint: median survival time, higher = longer survival
Procedure, shortened: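 Read-out: survival or tumor size, given as treated/control ratio. Controls received vehicle only; animals bore transplantable tumors.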

[1] = dose: 12.5 mg/kg/injection, schedule: Q01DX009 (ip), vehicle: saline
[2] = dose: 25.0 mg/kg/injection, schedule: Q01DX009 (ip), vehicle: saline
[3] = dose: 50.0 mg/kg/injection, schedule: Q01DX009 (ip), vehicle: saline
[4] = dose: 25.0 mg/kg/injection, schedule: Q01DX009 (ip), vehicle: saline with Tween-80
[5] = dose: 50.0 mg/kg/injection, schedule: Q01DX009 (ip), vehicle: saline with Tween-80
[6] = dose: 100.0 mg/kg/injection, schedule: Q01DX009 (ip), vehicle: saline with Tween-80
[7] = dose: 12.5 mg/kg/injection, schedule: Q01DX009 (ip), vehicle: saline with Tween-80
[8] = dose: 12.5 mg/kg/injection, schedule: Q01DX009 (ip), vehicle: Klucel (hydroxypropylcellulose) (HPC)
[9] = dose: 25.0 mg/kg/injection, schedule: Q01DX009 (ip), vehicle: Klucel (hydroxypropylcellulose) (HPC)
[10] = dose: 50.0 mg/kg/injection, schedule: Q01DX009 (ip), vehicle: Klucel (hydroxypropylcellulose) (HPC)
[11] = dose: 100.0 mg/kg/injection, schedule: Q01DX009 (ip), vehicle: Klucel (hydroxypropylcellulose) (HPC)
[12] = dose: 6.25 mg/kg/injection, schedule: Q01DX009 (ip), vehicle: saline

CC1([CH2][Hg][I])CS(=O)(=O)CC(C)([CH2][Hg][I])O1 (stereo not drawn)
T/C (dose: 1.25 mg/kg/injection, schedule: Q01DX009 (ip), vehicle: saline sonified): 97 % of control | T/C (dose: 2.0 mg/kg/injection, schedule: Q01DX009 (ip), vehicle: saline with Tween-80): 100 % of control | T/C (dose: 2.5 mg/kg/injection, schedule: Q01DX009 (ip), vehicle: saline sonified): 92 % of control | T/C (dose: 4.0 mg/kg/injection, schedule: Q01DX009 (ip), vehicle: saline sonified): 102 % of control | T/C (dose: 4.0 mg/kg/injection, schedule: Q01DX009 (ip), vehicle: saline with Tween-80): 94 % of control | T/C (dose: 8.0 mg/kg/injection, schedule: Q01DX009 (ip), vehicle: saline sonified): 95 % of control | T/C (dose: 8.0 mg/kg/injection, schedule: Q01DX009 (ip), vehicle: saline with Tween-80): 100 % of control | T/C (dose: 16.0 mg/kg/injection, schedule: Q01DX009 (ip), vehicle: saline sonified): 90 % of control | T/C (dose: 16.0 mg/kg/injection, schedule: Q01DX009 (ip), vehicle: saline with Tween-80): 100 % of control | T/C (dose: 32.0 mg/kg/injection, schedule: Q01DX009 (ip), vehicle: saline with Tween-80): 94 % of control

CCN(CC)CCNCCN
T/C [1]: 94 % of control | T/C [2]: 97 % of control | T/C [3]: 94 % of control

Cc1ccc(C)c(C(=O)CCCCl)c1
T/C [4]: 118 % of control | T/C [5]: 97 % of control | T/C [6]: 113 % of control

O=c1ccc2nc3ccccc3sc-2c1
T/C [7]: 93 % of control | T/C [4]: 86 % of control | T/C [5]: 95 % of control | T/C [6]: 91 % of control

COc1ccc(S(=O)O)cc1NC(C)=O
T/C (dose: 100.0 mg/kg/injection, schedule: Q04DX003 (ip), vehicle: Klucel (hydroxypropylcellulose) (HPC)): 95 % of control

CCC1CC2CC(c3cc4c(cc3OC)N(C)C3C(O)(C(=O)OC)C(OC(C)=O)C5(CC)C=CCN6CCC43C65)c3[nH]c4ccccc4c3CCN(C1)C2 (stereo not drawn)
T/C (dose: 0.25 mg/kg/injection, schedule: Q01DX009 (ip), vehicle: Klucel (hydroxypropylcellulose) (HPC)): 108 % of control | T/C (dose: 0.5 mg/kg/injection, schedule: Q01DX009 (ip), vehicle: Klucel (hydroxypropylcellulose) (HPC)): 94 % of control | T/C (dose: 1.0 mg/kg/injection, schedule: Q01DX009 (ip), vehicle: Klucel (hydroxypropylcellulose) (HPC)): 104 % of control | T/C (dose: 2.0 mg/kg/injection, schedule: Q01DX009 (ip), vehicle: Klucel (hydroxypropylcellulose) (HPC)): 111 % of control | T/C (dose: 4.0 mg/kg/injection, schedule: Q01DX009 (ip), vehicle: Klucel (hydroxypropylcellulose) (HPC)): 108 % of control | T/C (dose: 8.0 mg/kg/injection, schedule: Q01DX009 (ip), vehicle: Klucel (hydroxypropylcellulose) (HPC)): 104 % of control

Cc1ccc(C(C)(C)C[P+](C)(c2ccccc2)c2ccccc2)cc1
T/C (dose: 6.25 mg/kg/injection, schedule: Q01DX009 (ip), vehicle: Klucel (hydroxypropylcellulose) (HPC)): 90 % of control | T/C [8]: 94 % of control | T/C [9]: 99 % of control | T/C [10]: 93 % of control

CNC(Cc1ccccc1)c1ccc(OC)cc1 (stereo not drawn)
T/C [10]: 96 % of control | T/C [11]: 96 % of control

N=C(N)c1ccc(N=NNc2ccc(C(=N)N)cc2)cc1
T/C [7]: 101 % of control | T/C [4]: 112 % of control | T/C [5]: 114 % of control

Nc1nccc2c1ncn2C1OC(CO)C(O)C1O (stereo not drawn)
T/C (dose: 4.6 mg/kg/injection, schedule: Q03HX024 (ip), vehicle: saline with Tween-80): 90 % of control and 109 % of control | T/C (dose: 9.3 mg/kg/injection, schedule: Q03HX024 (ip), vehicle: saline with Tween-80): 94 % of control and 117 % of control | T/C (dose: 18.7 mg/kg/injection, schedule: Q03HX024 (ip), vehicle: saline with Tween-80): 98 % of control | T/C (dose: 37.5 mg/kg/injection, schedule: Q03HX024 (ip), vehicle: saline with Tween-80): 94 % of control

Cc1c[n+]2c3ccccc3c3ccccc3c2s1
T/C (dose: 10.0 mg/kg/injection, schedule: Q01DX009 (ip), vehicle: saline): 105 % of control | T/C (dose: 20.0 mg/kg/injection, schedule: Q01DX009 (ip), vehicle: saline): 105 % of control

O=C(Nc1ccc(C2=NCCCN2)cc1)c1ccc(C(=O)Nc2ccc(C3=NCCCN3)cc2)nc1
T/C (dose: 5.0 mg/kg/injection, schedule: Q01DX009 (ip), vehicle: saline with Tween-80): 87 % of control | T/C (dose: 10.0 mg/kg/injection, schedule: Q01DX009 (ip), vehicle: saline with Tween-80): 95 % of control

CN=C(N)N/N=C(\C)c1ccc2oc3ccc(/C(C)=N/NC(N)=NC)cc3c2c1
T/C [7]: 106 % of control | T/C [4]: 113 % of control | T/C [5]: 102 % of control

CN(C)CC/C=C1\c2ccccc2CSc2ccccc21
T/C (dose: 3.12 mg/kg/injection, schedule: Q01DX009 (ip), vehicle: saline): 90 % of control and 100 % of control | T/C [12]: 89 % of control and 100 % of control | T/C [1]: 97 % of control | T/C [2]: 104 % of control | T/C [3]: 95 % of control and 102 % of control

Cc1ccc(Nc2c3ccccc3nc3ccccc23)cc1
T/C (dose: 18.0 mg/kg/injection, schedule: Q01DX009 (ip), vehicle: saline with Tween-80): 123 % of control | T/C (dose: 18.0 mg/kg/injection, schedule: Q04DX003 (ip), vehicle: saline with Tween-80): 105 % of control | T/C (dose: 37.5 mg/kg/injection, schedule: Q04DX003 (ip), vehicle: saline with Tween-80): 110 % of control | T/C (dose: 75.0 mg/kg/injection, schedule: Q04DX003 (ip), vehicle: saline with Tween-80): 105 % of control

O=c1ssc(=Nc2ccccc2)n1-c1ccccc1
T/C [8]: 102 % of control | T/C [9]: 102 % of control | T/C [10]: 100 % of control | T/C [11]: 106 % of control | T/C (dose: 200.0 mg/kg/injection, schedule: Q01DX009 (ip), vehicle: Klucel (hydroxypropylcellulose) (HPC)): 91 % of control

c1cc[c]([Sn][c]2ccccc2)cc1
T/C (dose: 0.8 mg/kg/injection, schedule: Q04DX003 (ip), vehicle: saline with Tween-80): 97 % of control | T/C (dose: 1.2 mg/kg/injection, schedule: Q04DX003 (ip), vehicle: saline with Tween-80): 97 % of control | T/C (dose: 1.25 mg/kg/injection, schedule: Q01DX009 (ip), vehicle: saline): 95 % of control | T/C (dose: 1.8 mg/kg/injection, schedule: Q04DX003 (ip), vehicle: saline with Tween-80): 100 % of control | T/C (dose: 2.5 mg/kg/injection, schedule: Q01DX009 (ip), vehicle: saline): 111 % of control | T/C (dose: 2.5 mg/kg/injection, schedule: Q04DX003 (ip), vehicle: saline with Tween-80): 121 % of control | T/C (dose: 5.0 mg/kg/injection, schedule: Q01DX009 (ip), vehicle: saline): 109 % of control | T/C (dose: 5.0 mg/kg/injection, schedule: Q04DX003 (ip), vehicle: saline with Tween-80): 115 % of control

CC/C(=C/C(F)(F)C(F)(F)C(F)(F)F)[N+](=O)[O-]
T/C [8]: 101 % of control | T/C [9]: 87 % of control | T/C [10]: 87 % of control

CCCCCCCCCCCCCCCCN(C)S(=O)(=O)c1ccc2sc(SC)[n+](C)c2c1 (tested in a mixture with another compound)
T/C (dose: 12.5 mg/kg/injection, schedule: Q04DX003 (ip), vehicle: saline with Tween-80): 100 % of control | T/C (dose: 25.0 mg/kg/injection, schedule: Q04DX003 (ip), vehicle: saline with Tween-80): 100 % of control

COC1=C(N2CC2)C(=O)C(OC)=C(N2CC2)C1=O
T/C (dose: 0.25 mg/kg/injection, schedule: Q01DX009 (ip), vehicle: other): 112 % of control and 118 % of control | T/C (dose: 1.0 mg/kg/injection, schedule: Q01DX009 (ip), vehicle: saline with Tween-80): 179 % of control | T/C (dose: 2.0 mg/kg/injection, schedule: Q01DX009 (ip), vehicle: other): 169 % of control

C=CCNc1ccc(OC)cc1
T/C [5]: 95 % of control | T/C [6]: 107 % of control

CN(C)/C=C(/C#N)C(=O)N1CCCC1
T/C (dose: 37.5 mg/kg/injection, schedule: Q04DX003 (ip), vehicle: saline): 95 % of control | T/C (dose: 75.0 mg/kg/injection, schedule: Q04DX003 (ip), vehicle: saline): 88 % of control | T/C (dose: 150.0 mg/kg/injection, schedule: Q04DX003 (ip), vehicle: saline): 100 % of control

CCCCCOC(CN)C(Cl)(Cl)Cl (stereo not drawn)
T/C [1]: 93 % of control | T/C [2]: 100 % of control | T/C [3]: 102 % of control

CC(C)C(Br)C(=O)NC(Cc1ccccc1)C(=O)O (stereo not drawn)
T/C [6]: 104 % of control | T/C (dose: 200.0 mg/kg/injection, schedule: Q01DX009 (ip), vehicle: saline with Tween-80): 95 % of control

CC1CN1P(=O)(N1CC1C)N1CC1C (stereo not drawn)
T/C [12]: 120 % of control | T/C [1]: 100 % of control and 112 % of control | T/C [2]: 113 % of control | T/C (dose: 25.0 mg/kg/injection, schedule: Q04DX003 (ip), vehicle: saline): 113 % of control | T/C (dose: 50.0 mg/kg/injection, schedule: Q04DX003 (ip), vehicle: saline): 120 % of control | T/C (dose: 100.0 mg/kg/injection, schedule: Q04DX003 (ip), vehicle: saline): 93 % of control

Source: PubChem BioAssay AID192 (DTP/NCI, 2004)
